The conditions of data set [1]: first renal transplantations, cited from earlier work.
The test system of data set [2] is collagen-induced arthritis in Lewis rats. The experiment in a line: Collagen-induced arthritis in Lewis rats, daily arthritis index. It counts as in vivo, Lewis rat. The settings on record: positive control, 10 mg/kg/day. The procedure:
A. Collagen-Induced Lewis Rat Model of Rheumatoid Arthritis (RA)-PeptideX2 (SEQ ID NO: 1). The Lewis rat system is an art-accepted in vivo animal model of collagen-induced rheumatoid arthritis. Lewis rats obtained from a commercial laboratory supply vendor were maintained during a quarantine period under standard animal care conditions and found to be free of any clinical signs of disease or distress. Bovine type II collagen (10 mg, Chondrex, Inc., Redmond, WA) was dissolved in 2.5 ml 0.1M acetic acid and stirred overnight at 4-8° C. in the dark, and then one ml of this collagen solution was emulsified in one ml of incomplete Freund's adjuvant (ICFA, Sigma, St. Louis, MO) on an ice bath. On day zero, each of five rats was injected with 0.2 ml of collagen/ICFA emulsion at two sites and then observed for the next 30 days with the arthritis index (AI) calculated daily using the 16-point scoring method of Bevaart et al. (2010 Meths. Mol. Biol. 602:181: 0 points, no joint swelling or edema; 1 point, slight edema and erythema limited to foot and/or ankle; 2 points, edema and erythema in the toes and most ankle joints; 3 points, severe edema and erythema in the paw below the ankle joint; 4 points, edema and erythema of all four paws including the ankle joint). […]
6 Lewis rats (ENVIGO, female, 190-210g) were received, individually examined, and housed. […] Rat weights were recorded daily. […]

A short description of data set [3]: Solubility of peptideX2-13 modifications in aqueous buffer. It counts as physicochemical. The settings on record: for solubility, comparative: modification (10) vs peptideX2-13, modification (11) vs (10), reversed core sequence. The procedure:
Various modifications of peptideX2-13 were tested for solubility (see Table 2).

Data set [4] in a line: Tolerability / adverse effects of intravenous dosing in the Lewis rat RA model. It counts as in vivo. As to conditions: for adverse effects: 500 μg/ml, intravenous. The procedure:
On day 15, the rats were divided into treatment groups and were dosed intravenously on a daily basis for the next 15 days (except as noted) with the pentide YLQMN (SEQ ID NO: 5)-containing PeptideX2 (SEQ ID NO: 1) to achieve final circulating concentrations of PeptideX2 peptide as follows: 0 μg/ml (vehicle control: 0.2% acetic acid-Dulbecco's phosphate buffered saline (PBS-D), pH 6.0); 100 μg/ml vehicle; 200 μg/ml vehicle, and 500 μg/ml vehicle per rat/per day. As a positive control for anti-inflammatory activity, daily dosing of a control rat with prednisolone at 10 mg/kg/day was used. The arthritis index was calculated daily for each viable rat throughout the 30-day study.
B. Stability, aggregation, and toxicity of the pentide YLQMN (SEQ ID NO: 5)-containing polypeptides PeptideX2 (SEQ ID NO: 1) and G2-PeptideX2 (SEQ ID NO: 2).
Eleven Lewis rats were prepared using the collagen induced arthritis protocol. At day 15 thru day 30, three rats were given daily dosing of PeptideX2-13 (SEQ ID NO: 3) at 100 μg/ml, three rats were given daily dosing of PeptideX2-13 (SEQ ID NO: 3) at 250 μg/ml, and three rats were given daily dosing of PeptideX2-13 (SEQ ID NO: 3) at 500 μg/ml; as a positive control group, two rats were given prednisolone at 10 mg/kg/day.
The rats were weighed, scored for signs of arthritis and assigned to various treatment groups of one or more rats to each group. For the prednisolone control group, 200.85 mg prednisolone 21-hemisuccinate sodium salt (Sigma, Cat. P4153) was dissolved in 15 ml de-ionized water to prepare a 10 mg/ml solution which was stored at 4-8° C. when not in use. Rats in the study groups were dosed daily from day 15 through day 30 according to the formula for which a rat weighing (g)×64 ml/1000 g (represents the total blood volume) multiplied by the test product dose/test product concentration to determine the total volume to be injected into the animal per day to achieve that desired estimated blood concentration. Rats were weighed and scored daily during the treatment phase of the experiment and the results recorded and reported.

For data set [5], the target named is T1, human TLR2 (human, UniProt O60603 21-784).
T1 construct: whole, on cells; Expressed in HEK293 NF-κB/SEAP reporter cells; also called hTLR2; toll-like receptor 2
T1 sequence (O60603 21-784): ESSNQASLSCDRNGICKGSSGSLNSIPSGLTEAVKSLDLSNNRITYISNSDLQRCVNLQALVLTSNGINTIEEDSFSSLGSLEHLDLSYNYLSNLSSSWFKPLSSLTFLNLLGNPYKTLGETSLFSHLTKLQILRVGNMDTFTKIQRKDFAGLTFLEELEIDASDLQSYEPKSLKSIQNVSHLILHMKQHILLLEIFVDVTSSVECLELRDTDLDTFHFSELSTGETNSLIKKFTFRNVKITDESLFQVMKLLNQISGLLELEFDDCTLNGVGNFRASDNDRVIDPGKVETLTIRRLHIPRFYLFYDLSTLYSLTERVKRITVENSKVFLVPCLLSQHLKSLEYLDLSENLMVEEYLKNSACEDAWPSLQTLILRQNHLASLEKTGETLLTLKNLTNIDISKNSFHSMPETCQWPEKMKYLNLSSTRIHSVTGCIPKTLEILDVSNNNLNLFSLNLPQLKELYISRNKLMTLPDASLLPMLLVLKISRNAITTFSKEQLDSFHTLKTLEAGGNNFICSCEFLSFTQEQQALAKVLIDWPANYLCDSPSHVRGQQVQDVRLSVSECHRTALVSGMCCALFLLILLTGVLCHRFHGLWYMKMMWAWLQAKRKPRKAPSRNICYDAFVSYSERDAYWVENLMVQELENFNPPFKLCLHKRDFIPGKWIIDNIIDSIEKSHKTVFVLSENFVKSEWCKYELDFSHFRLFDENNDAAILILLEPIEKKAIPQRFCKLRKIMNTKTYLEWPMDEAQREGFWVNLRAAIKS
Nature of the data set: NF-κB SEAP reporter in HEK293 cells expressing human TLR2, 200 µg/ml (FIG. 6); binding inferred from reporter activity. On the procedure:
Human Toll-like receptor ligand screening was performed using test samples containing a peptide of interest at 200 μg/ml. The general procedure consisted of testing for NF-κB activation in HEK293 cells expressing a given TLR. The samples were tested against seven different human TLRs (TLR2, 3, 4, 5, 7, 8, 9). The media added to the wells were designed for the detection of NF-κB induced SEAP (secreted embryonic alkaline phosphatase) expression. After 16-24 hours of incubation, the optical density (OD) was read at 650 nm on a Molecular Devices SpectraMax 340PC absorbance detector.

The target of data set [6] is T1, human TLR2. Nature of the data set: NF-κB SEAP reporter on human TLR panel; binding inferred from reporter activity.
Setting [7] is: buffer (0.2% acetic acid, 0.375M Hepes, 0.375% glycerol, pH 7), no concentration stated.

Entries after “also recorded” stand apart in the source; their conditions may differ. Where two headings read alike, the source gives them in different places. Ends that are not written are not given here.

On to `Cn1cnc([N+](=O)[O-])c1Sc1ncnc2nc[nH]c12` [AZA, azathioprine], for which the graft survival rate in data set [1] (5 years post-transplant) is recorded as 56%; in data set [1] (10 years post-transplant) it was 46%.
As for `C=CC[C@@H]1/C=C(\C)C[C@H](C)C[C@H](OC)[C@H]2O[C@@](O)(C(=O)C(=O)N3CCCC[C@H]3C(=O)O[C@H](/C(C)=C/[C@@H]3CC[C@@H](O)[C@H](OC)C3)[C@H](C)[C@@H](O)CC1=O)[C@H](C)C[C@@H]2OC` [TAC, tacrolimus], the results for the graft survival rate in data set [1] (5 years post-transplant) and in data set [1] (10 years post-transplant) were 77% and 60%, respectively.
In the case of `C[C@]12C=CC(=O)C=C1CC[C@@H]1[C@@H]2[C@@H](O)C[C@@]2(C)[C@H]1CC[C@]2(O)C(=O)CO` [prednisolone], the arthritis index entry in data set [2] was “potent and sustained reduction of the arthritis index; also recorded: decreased”.
For GKAANMQLYAAKG [SEQ ID NO: 17], the Solubility result in data set [3] (buffer, at 2 mg/ml) was “Soluble in buffer”.
Take GKAAYLQMNAAKG [PeptideX2-13]: the “tolerability in animal model compared with PeptideX2” value in data set [4] (summary statement) was “tolerated and not toxic at a certain higher concentrations than was the case for previously described PeptideX2”. Further, in data set [3] (setting [7]), the Solubility result is recorded as “Soluble in buffer”.
With GKAYLQMNAKG [SEQ ID NO: 13], the Solubility entry in data set [3] (buffer, at 2 mg/ml) is listed as “Soluble in buffer”.
With GKYLQMNKG [SEQ ID NO: 22], the Solubility entry in data set [3] (buffer, at 2 mg/ml) is recorded as “Soluble in buffer”.
Still for that read-out and setting: the same measure for “GRAAYLQMNAARG [K2R/K12R-substituted PeptideX2-13]”: “Soluble in buffer”.
For GRSSANMQLYASSRG [modification (11)], the Solubility entry in data set [3] (at 5 mg/ml concentration) is “Insoluble at”. Besides, in data set [3], the “solubility, comparative” value is reported as “no significant difference”.
On the same counts, the results for GRSSAYLQMNASSRG [modification (10)] are “Insoluble at” and “less solubility compared to peptideX2-13”.
Consider GYLQMNG [modification (7), GYLQMNG], for which the Solubility result in data set [3] (setting [7]) is recorded as “insoluble in aqueous buffer”.
Regarding “KSIAYLQMNSLK [PeptideX2, reference compound]”, in data set [4], the adverse effects result was “went into respiratory distress and died immediately”. Further, the “outcome (death)” value in data set [4] (single IV dose to achieve 300 μg/ml, thirty-eight minutes after injection) was “went into convulsions again and died”.
As for PKAAYLQMNAAKP [SEQ ID NO: 12], the Solubility result in data set [3] (buffer, at 2 mg/ml) is “Soluble in buffer”.
Take YLQMN [pentide, YLQMN]: the adverse effects entry in data set [4] is “No adverse effects”.

B1: reverse modified peptideX2 (NMQLY) (peptide)
peptide: NMQLY
notes: Printed as NMQLY; also called reverse core; reverse-peptideX2
As to B1, in the data set with human TLR2 [5], the binding result was “binds”.
KSIAYLQMNSLK [PeptideX2 (KSIAYLQMNSLK)]: the binding result with human TLR2 [6] was “binds”.

These data come from patent US20250382330A1, “IMMUNOLOGICALLY ACTIVE POLYPEPTIDE” (CDRES PHARMA LLC, priority 2022, published 2025).
